Key:
[1] = target: EGFR-viii (Homo sapiens, UniProt P00533, DELINS30-297G); settings: Ji, Zhao et al., 2006; Vivanco, Robins et al., 2012; cited from earlier work
[2] = tested on: tumors expressing EGFR-viii; settings: cited from earlier work; for benefit for GBM in clinical studies: clinical studies evaluating reversible or covalent EGFR inhibitors in GBM
[3] = target: T1, phosphoY1173-EGFRviii expressed in U87MG tumor cells (Homo sapiens, UniProt P00533, DELINS30-297G); assay: Inhibition of phosphoY1173-EGFRviii in U87MG tumor cells engineered to express EGFR-viii (in-cell ELISA); format: cell-based; settings: for activity against EGFR-viii: FIG. 1
T1 construct: expressed in transfected cells; host or cells: U87MG (ATCC), lentiviral infection, puromycin selection
Description: Cells stably expressing EGFR-WT or EGFR-viii were maintained in the presence of 0.5 ug/ml puromycin.
All EGFR inhibitors were purchased from Selleck Chemicals, Houston TX, at a concentration of 10 mM in DMSO. […] Serial dilution of compounds was prepared using DMSO at 100× the final concentration indicated and then diluted in cell media to the final concentration indicated.
Data are expressed as EC50 and were determined using an in-cell ELISA kit (Pierce).

COc1cc2ncnc(Nc3ccc(F)c(Cl)c3)c2cc1NC(=O)/C=C/CN1CCCCC1 [dacomitinib]
inhibition of EGFR-viii (recent studies) [1]: potent inhibitors of EGFR-viii

CS(=O)(=O)CCNCc1ccc(-c2ccc3ncnc(Nc4ccc(OCc5cccc(F)c5)c(Cl)c4)c3c2)o1 [lapatinib]
benefit for GBM in clinical studies [2]: failed to demonstrate significant benefit
cancer growth inhibition in clinical studies ([2]; clinical studies, GBM): insignificant cancer growth inhibition

C=CC(=O)Nc1cccc(Nc2nc(Nc3ccc(N4CCN(C(C)=O)CC4)cc3OC)ncc2C(F)(F)F)c1 [CO-1686]
activity against EGFR-viii [3]: weak activity

C=CC(=O)Nc1cccc(Oc2nc(Nc3ccc(N4CCN(C)CC4)cc3)ncc2Cl)c1 [WZ3146]
activity against EGFR-viii [3]: weak activity

C#Cc1cccc(Nc2ncnc3cc(OCCOC)c(OCCOC)cc23)c1 [erlotinib]
benefit for GBM in clinical studies [2]: failed to demonstrate significant benefit

C=CC(=O)Nc1ccc2ncnc(Nc3ccc(OCc4cccc(F)c4)c(Cl)c3)c2c1 [AST-1306]
EC50 ([3]; in-cell ELISA, FIG. 1, read-out: EC50 against EGFR-viii): < 50 nM

C=CC(=O)Nc1cccc(Sc2nc(Nc3ccc(N4CCN(C)CC4)cc3)ncc2Cl)c1 [WZ8040]
activity against EGFR-viii [3]: weak activity

From patent US20180271853A1, “Method of Use for Inhibitors of Epidermal Growth Factor Receptor Variant III” (METASTAT, INC., priority 2015, published 2018)
